PubChem BioAssay (NCI)
Converted amounts (≈) assume the structure as drawn.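 Dose response: 5 concentrations. Exposure: 48 h. Format: 96-well plates. Endpoint: linear interpolation; highest concentration if not reached. GI50 = concentration required for 50% inhibition of growth. TGI: total growth inhibition.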

How the values were obtained:
Test in all cases: NCI tumour cell line growth inhibition, 48 h
A498 renal = tested on: A498 renal
A549 NSCLC = tested on: A549 NSCLC
ACHN renal = tested on: ACHN renal
BT-549 breast = tested on: BT-549 breast
CAKI-1 renal = tested on: CAKI-1 renal
CCRF-CEM leukemia = tested on: CCRF-CEM leukemia
COLO 205 colon = tested on: COLO 205 colon
DU-145 prostate = tested on: DU-145 prostate
EKVX NSCLC = tested on: EKVX NSCLC
HCC-2998 colon = tested on: HCC-2998 colon
HCT-116 colon = tested on: HCT-116 colon
HCT-15 colon = tested on: HCT-15 colon
HL-60(TB) leukemia = tested on: HL-60(TB) leukemia
HOP-62 NSCLC = tested on: HOP-62 NSCLC
HOP-92 NSCLC = tested on: HOP-92 NSCLC
HS 578T breast = tested on: HS 578T breast
HT29 colon = tested on: HT29 colon
IGROV1 ovarian = tested on: IGROV1 ovarian
K-562 leukemia = tested on: K-562 leukemia
KM12 colon = tested on: KM12 colon
LOX IMVI melanoma = tested on: LOX IMVI melanoma
M14 melanoma = tested on: M14 melanoma
MALME-3M melanoma = tested on: MALME-3M melanoma
MCF7 breast = tested on: MCF7 breast
MDA-MB-231 breast = tested on: MDA-MB-231 breast
MDA-MB-435 = tested on: MDA-MB-435
MDA-N = tested on: MDA-N
MOLT-4 leukemia = tested on: MOLT-4 leukemia
NCI-H226 lung = tested on: NCI-H226 lung
NCI-H23 lung = tested on: NCI-H23 lung
NCI-H460 lung = tested on: NCI-H460 lung
NCI-H522 lung = tested on: NCI-H522 lung
NCI/ADR-RES ovarian = tested on: NCI/ADR-RES ovarian
OVCAR-3 ovarian = tested on: OVCAR-3 ovarian
OVCAR-4 ovarian = tested on: OVCAR-4 ovarian
OVCAR-5 ovarian = tested on: OVCAR-5 ovarian
OVCAR-8 ovarian = tested on: OVCAR-8 ovarian
PC-3 prostate = tested on: PC-3 prostate
RPMI-8226 leukemia = tested on: RPMI-8226 leukemia
RXF 393 renal = tested on: RXF 393 renal
SF-268 CNS = tested on: SF-268 CNS
SF-295 CNS = tested on: SF-295 CNS
SF-539 CNS = tested on: SF-539 CNS
SK-MEL-2 melanoma = tested on: SK-MEL-2 melanoma
SK-MEL-28 melanoma = tested on: SK-MEL-28 melanoma
SK-MEL-5 melanoma = tested on: SK-MEL-5 melanoma
SK-OV-3 ovarian = tested on: SK-OV-3 ovarian
SN12C renal = tested on: SN12C renal
SNB-19 CNS = tested on: SNB-19 CNS
SNB-75 CNS = tested on: SNB-75 CNS
SR leukemia = tested on: SR leukemia
SW-620 colon = tested on: SW-620 colon
T-47D breast = tested on: T-47D breast
TK-10 renal = tested on: TK-10 renal
U251 CNS = tested on: U251 CNS
UACC-257 melanoma = tested on: UACC-257 melanoma
UACC-62 melanoma = tested on: UACC-62 melanoma

## CC1C(=O)c2cc3c(cc2CCN(C)Cc2c1ccc1c2OCO1)OCO3 (centres undefined)
A498 renal
  GI50: > 75 µg/mL
  TGI: > 75 µg/mL
A549 NSCLC
  GI50: > 75 µg/mL
  TGI: > 75 µg/mL
ACHN renal
  GI50: > 75 µg/mL
  TGI: > 75 µg/mL
BT-549 breast
  GI50: 59 µg/mL (≈ 161 µM)
  TGI: > 75 µg/mL
CAKI-1 renal
  GI50: > 75 µg/mL
  TGI: > 75 µg/mL
CCRF-CEM leukemia
  GI50: 22 µg/mL (≈ 59.9 µM)
  TGI: > 75 µg/mL
COLO 205 colon
  GI50: 26.2 µg/mL (≈ 71.2 µM)
  TGI: > 75 µg/mL
DU-145 prostate
  GI50: > 75 µg/mL
  TGI: > 75 µg/mL
EKVX NSCLC
  GI50: > 75 µg/mL
  TGI: > 75 µg/mL
HCC-2998 colon
  GI50: 14.1 µg/mL (≈ 38.5 µM)
  TGI: 33.5 µg/mL (≈ 91.3 µM)
HCT-116 colon
  GI50: 23.4 µg/mL (≈ 63.8 µM)
  TGI: > 75 µg/mL
HCT-15 colon
  GI50: > 75 µg/mL
  TGI: > 75 µg/mL
HL-60(TB) leukemia
  GI50: 21.2 µg/mL (≈ 57.7 µM)
  TGI: > 75 µg/mL
HOP-62 NSCLC
  GI50: > 75 µg/mL
  TGI: > 75 µg/mL
HOP-92 NSCLC
  GI50: > 75 µg/mL
  TGI: > 75 µg/mL
HS 578T breast
  GI50: > 75 µg/mL
  TGI: > 75 µg/mL
HT29 colon
  GI50: 19.6 µg/mL (≈ 53.5 µM)
  TGI: > 75 µg/mL
IGROV1 ovarian
  GI50: > 75 µg/mL
  TGI: > 75 µg/mL
K-562 leukemia
  GI50: 24.7 µg/mL (≈ 67.3 µM)
  TGI: > 75 µg/mL
KM12 colon
  GI50: 59 µg/mL (≈ 161 µM)
  TGI: > 75 µg/mL
LOX IMVI melanoma
  GI50: 18.6 µg/mL (≈ 50.7 µM)
  TGI: > 75 µg/mL
M14 melanoma
  GI50: 43.6 µg/mL (≈ 119 µM)
  TGI: > 75 µg/mL
MALME-3M melanoma
  GI50: > 75 µg/mL
  TGI: > 75 µg/mL
MCF7 breast
  GI50: 48.5 µg/mL (≈ 132 µM)
  TGI: > 75 µg/mL
MDA-MB-231 breast
  GI50: > 75 µg/mL
  TGI: > 75 µg/mL
MDA-MB-435
  GI50: 47.7 µg/mL (≈ 130 µM)
  TGI: > 75 µg/mL
MDA-N
  GI50: > 75 µg/mL
  TGI: > 75 µg/mL
MOLT-4 leukemia
  GI50: 21.8 µg/mL (≈ 59.3 µM)
  TGI: > 75 µg/mL
NCI-H226 lung
  GI50: > 75 µg/mL
  TGI: > 75 µg/mL
NCI-H23 lung
  GI50: > 75 µg/mL
  TGI: > 75 µg/mL
NCI-H460 lung
  GI50: 40.3 µg/mL (≈ 110 µM)
  TGI: > 75 µg/mL
NCI-H522 lung
  GI50: 34.6 µg/mL (≈ 94.3 µM)
  TGI: > 75 µg/mL
NCI/ADR-RES ovarian
  GI50: 58.3 µg/mL (≈ 159 µM)
  TGI: > 75 µg/mL
OVCAR-3 ovarian
  GI50: > 75 µg/mL
  TGI: > 75 µg/mL
OVCAR-4 ovarian
  GI50: 44.4 µg/mL (≈ 121 µM)
  TGI: > 75 µg/mL
OVCAR-5 ovarian
  GI50: > 75 µg/mL
  TGI: > 75 µg/mL
OVCAR-8 ovarian
  GI50: > 75 µg/mL
  TGI: > 75 µg/mL
PC-3 prostate
  GI50: 24 µg/mL (≈ 65.4 µM)
  TGI: > 75 µg/mL
RPMI-8226 leukemia
  GI50: 34.6 µg/mL (≈ 94.3 µM)
  TGI: > 75 µg/mL
RXF 393 renal
  GI50: 13.1 µg/mL (≈ 35.5 µM)
  TGI: 68.3 µg/mL (≈ 186 µM)
SF-268 CNS
  GI50: > 75 µg/mL
  TGI: > 75 µg/mL
SF-295 CNS
  GI50: > 75 µg/mL
  TGI: > 75 µg/mL
SF-539 CNS
  GI50: 71.2 µg/mL (≈ 194 µM)
  TGI: > 75 µg/mL
SK-MEL-2 melanoma
  GI50: > 75 µg/mL
  TGI: > 75 µg/mL
SK-MEL-28 melanoma
  GI50: 30.9 µg/mL (≈ 84 µM)
  TGI: > 75 µg/mL
SK-MEL-5 melanoma
  GI50: 37.1 µg/mL (≈ 101 µM)
  TGI: > 75 µg/mL
SK-OV-3 ovarian
  GI50: > 75 µg/mL
  TGI: > 75 µg/mL
SN12C renal
  GI50: > 75 µg/mL
  TGI: > 75 µg/mL
SNB-19 CNS
  GI50: > 75 µg/mL
  TGI: > 75 µg/mL
SNB-75 CNS
  GI50: > 75 µg/mL
  TGI: > 75 µg/mL
SR leukemia
  GI50: 13.3 µg/mL (≈ 36.2 µM)
  TGI: 40.9 µg/mL (≈ 111 µM)
SW-620 colon
  GI50: > 75 µg/mL
  TGI: > 75 µg/mL
T-47D breast
  GI50: > 75 µg/mL
  TGI: > 75 µg/mL
TK-10 renal
  GI50: > 75 µg/mL
  TGI: > 75 µg/mL
U251 CNS
  GI50: 67.5 µg/mL (≈ 184 µM)
  TGI: > 75 µg/mL
UACC-257 melanoma
  GI50: 36.1 µg/mL (≈ 98.2 µM)
  TGI: > 75 µg/mL
UACC-62 melanoma
  GI50: 45.2 µg/mL (≈ 123 µM)
  TGI: > 75 µg/mL
